Key:
[1] = biological target: T1, human recombinant HDAC1 (Homo sapiens, UniProt Q13547); experiment: HDAC enzyme activity inhibition assay (HDAC Fluorimetric Drug Discovery Kit), HDAC1; assay type: biochemical; conditions: human recombinant HDAC1, Fluor de Lys-SIRT1 substrate, 30° C. 60 minutes
T1 construct: purchased Enzo Life Sciences, Inc. BML-SE456
Procedure, shortened: (§1)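 Recombinant human HDAC1 or HDAC6 (0.3 μg) reacted with 10 μM Fluor de Lys-SIRT1 substrate at 30 °C for 60 min. Developer added for 30 min, then fluorescence read at Ex 360/Em 460.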

[2] = biological target: T2, human recombinant HDAC6 (Homo sapiens, UniProt Q9UBN7); experiment: HDAC enzyme activity inhibition assay (HDAC Fluorimetric Drug Discovery Kit), HDAC6; assay type: biochemical; conditions: for HDAC6 selectivity (fold): HDAC1 vs HDAC6; for IC50: human recombinant HDAC6, same protocol as HDAC1
T2 construct: purchased Calbiochem Inc. 382180
T2 sequence (Q9UBN7 1-1215): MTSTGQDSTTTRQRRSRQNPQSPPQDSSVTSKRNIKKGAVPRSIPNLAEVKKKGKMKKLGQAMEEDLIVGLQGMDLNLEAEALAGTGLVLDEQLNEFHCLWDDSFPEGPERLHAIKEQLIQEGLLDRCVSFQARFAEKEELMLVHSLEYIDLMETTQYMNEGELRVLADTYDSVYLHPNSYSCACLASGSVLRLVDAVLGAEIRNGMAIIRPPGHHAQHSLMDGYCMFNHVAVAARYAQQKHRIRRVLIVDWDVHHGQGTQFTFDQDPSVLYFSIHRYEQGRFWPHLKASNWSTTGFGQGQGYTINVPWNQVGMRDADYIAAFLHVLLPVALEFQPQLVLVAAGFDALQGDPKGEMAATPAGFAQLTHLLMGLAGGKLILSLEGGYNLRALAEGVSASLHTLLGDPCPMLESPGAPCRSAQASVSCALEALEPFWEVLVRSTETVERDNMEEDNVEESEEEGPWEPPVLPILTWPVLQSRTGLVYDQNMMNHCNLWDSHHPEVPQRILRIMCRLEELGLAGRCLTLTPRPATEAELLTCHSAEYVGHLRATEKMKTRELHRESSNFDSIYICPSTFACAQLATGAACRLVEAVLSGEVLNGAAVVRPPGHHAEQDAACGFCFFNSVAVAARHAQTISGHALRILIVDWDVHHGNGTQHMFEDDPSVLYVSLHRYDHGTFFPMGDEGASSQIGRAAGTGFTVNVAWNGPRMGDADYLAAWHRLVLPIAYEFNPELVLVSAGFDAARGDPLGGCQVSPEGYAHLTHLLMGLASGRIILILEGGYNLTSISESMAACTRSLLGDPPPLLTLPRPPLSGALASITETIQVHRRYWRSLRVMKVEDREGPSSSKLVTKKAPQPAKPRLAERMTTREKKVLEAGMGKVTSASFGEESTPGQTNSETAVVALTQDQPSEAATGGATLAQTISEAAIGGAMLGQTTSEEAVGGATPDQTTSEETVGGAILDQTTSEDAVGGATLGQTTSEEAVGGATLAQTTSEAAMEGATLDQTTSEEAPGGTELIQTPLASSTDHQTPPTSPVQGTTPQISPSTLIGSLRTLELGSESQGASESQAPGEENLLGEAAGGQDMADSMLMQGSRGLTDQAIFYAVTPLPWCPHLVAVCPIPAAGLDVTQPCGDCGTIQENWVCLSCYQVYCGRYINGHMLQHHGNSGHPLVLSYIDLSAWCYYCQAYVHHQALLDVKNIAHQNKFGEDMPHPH
Procedure, shortened: as §1

T1 sequence (Q13547 whole entry): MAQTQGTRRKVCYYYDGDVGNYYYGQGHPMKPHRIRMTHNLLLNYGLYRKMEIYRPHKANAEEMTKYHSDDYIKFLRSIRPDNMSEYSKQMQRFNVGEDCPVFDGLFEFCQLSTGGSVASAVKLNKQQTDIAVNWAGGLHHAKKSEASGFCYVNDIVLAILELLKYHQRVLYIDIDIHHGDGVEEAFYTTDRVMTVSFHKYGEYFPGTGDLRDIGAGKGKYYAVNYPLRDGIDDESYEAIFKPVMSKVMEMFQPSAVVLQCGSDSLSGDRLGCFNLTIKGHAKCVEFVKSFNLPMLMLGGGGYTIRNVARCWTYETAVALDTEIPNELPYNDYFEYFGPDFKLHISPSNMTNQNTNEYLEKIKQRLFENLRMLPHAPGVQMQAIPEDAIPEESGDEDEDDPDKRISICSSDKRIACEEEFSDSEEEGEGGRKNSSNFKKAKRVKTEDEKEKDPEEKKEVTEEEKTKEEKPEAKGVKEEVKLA

Row | SMILES | IC50 [1] | HDAC6 selectivity (fold) [2] | IC50 [2]
1 | O=C(C1CCCC1)N1CC(F)(C(=O)N(Cc2ccc(-c3nnc(C(F)F)o3)cn2)c2cccc(F)c2)C1 [Compound 3169, 1-(cyclopentanecarbonyl)-N-((5-(5-(difluoromethyl)-1,3,4-oxadiazol-2-yl)pyridin-2-yl)methyl)-3-fluoro-N-(3-fluorophenyl)azetidine-3-carboxamide] | > 50000 nM | 2,808 fold | 17.8 nM
2 | O=C(C1CCCCC1)N1CC(F)(C(=O)N(Cc2ccc(-c3nnc(C(F)F)o3)cn2)c2cccc(F)c2)C1 [Compound 3170, 1-(cyclohexanecarbonyl)-N-((5-(5-(difluoromethyl)-1,3,4-oxadiazol-2-yl)pyridin-2-yl)methyl)-3-fluoro-N-(3-fluorophenyl)azetidine-3-carboxamide] | > 50000 nM | 2,066 fold | 24.2 nM
3 | O=C(N(Cc1ccc(-c2nnc(C(F)F)o2)cn1)c1cccc(F)c1)C1(F)CN(CC2CCCCC2)C1 [Compound 3171, 1-(cyclohexylmethyl)-N-((5-(5-(difluoromethyl)-1,3,4-oxadiazol-2-yl)pyridin-2-yl)methyl)-3-fluoro-N-(3-fluorophenyl)azetidine-3-carboxamide] | > 50000 nM | 741 fold | 67.4 nM
4 | O=C(N(Cc1ccc(-c2nnc(C(F)F)o2)cn1)c1cccc(F)c1)C1(F)CN(C2CCSCC2)C1 [Compound 3172, N-((5-(5-(difluoromethyl)-1,3,4-oxadiazol-2-yl)pyridin-2-yl)methyl)-3-fluoro-N-(3-fluorophenyl)-1-(tetrahydro-2H-thiopyran-4-yl)azetidine-3-carboxamide] | > 50000 nM | 2,192 fold | 22.8 nM
5 | O=C(N(Cc1ccc(-c2nnc(C(F)F)o2)cn1)c1ccccc1)C1(F)CN(CC2CCOCC2)C1 [Compound 3216] | > 50000 nM | 875 fold | 57.1 nM
6 | O=C(C1CC1)N1CC(F)(C(=O)N(Cc2ccc(-c3nnc(C(F)F)o3)cn2)c2cccc(F)c2)C1 [Compound 3217, 1-(cyclopropanecarbonyl)-N-((5-(5-(difluoromethyl)-1,3,4-oxadiazol-2-yl)pyridin-2-yl)methyl)-3-fluoro-N-(3-fluorophenyl)azetidine-3-carboxamide] | > 50000 nM | 1,440 fold | 34.7 nM
7 | O=C(N(Cc1ccc(-c2nnc(C(F)F)o2)cn1)c1cccc(F)c1)C1(F)CN(CC2CCOCC2)C1 [Compound 3218] | > 50000 nM | 1,187 fold | 42.1 nM
8 | CN1CC(N2CC(F)(C(=O)N(Cc3ccc(-c4nnc(C(F)F)o4)cn3)c3cccc(F)c3)C2)C1 [Compound 3219, N-((5-(5-(difluoromethyl)-1,3,4-oxadiazol-2-yl)pyridin-2-yl)methyl)-3-fluoro-N-(3-fluorophenyl)-1′-methyl-[1,3′-biazetidine]-3-carboxamide] | > 50000 nM | 988 fold | 50.6 nM
9 | CCN1CC(N2CC(F)(C(=O)N(Cc3ccc(-c4nnc(C(F)F)o4)cn3)c3cccc(F)c3)C2)C1 [Compound 3220, N-((5-(5-(difluoromethyl)-1,3,4-oxadiazol-2-yl)pyridin-2-yl)methyl)-1′-ethyl-3-fluoro-N-(3-fluorophenyl)-[1,3′-biazetidine]-3-carboxamide] | > 50000 nM | 1,272 fold | 39.3 nM
10 | CCCCN1CC(N2CC(F)(C(=O)N(Cc3ccc(-c4nnc(C(F)F)o4)cn3)c3cccc(F)c3)C2)C1 [Compound 3222, 1′-butyl-N-((5-(5-(difluoromethyl)-1,3,4-oxadiazol-2-yl)pyridin-2-yl)methyl)-3-fluoro-N-(3-fluorophenyl)-[1,3′-biazetidine]-3-carboxamide] | > 50000 nM | 1,420 fold | 35.2 nM
11 | CC(C)CN1CC(N2CC(F)(C(=O)N(Cc3ccc(-c4nnc(C(F)F)o4)cn3)c3cccc(F)c3)C2)C1 [Compound 3223, N-((5-(5-(difluoromethyl)-1,3,4-oxadiazol-2-yl)pyridin-2-yl)methyl)-3-fluoro-N-(3-fluorophenyl)-1′-isobutyl-[1,3′-biazetidine]-3-carboxamide] | > 50000 nM | 1,424 fold | 35.1 nM
12 | CC(C)N1CC(N2CC(F)(C(=O)N(Cc3ccc(-c4nnc(C(F)F)o4)cn3)c3cccc(F)c3)C2)C1 [Compound 3224] | > 50000 nM | 1,326 fold | 37.7 nM
13 | CN1CC(N2CCC(F)(C(=O)N(Cc3ccc(-c4nnc(C(F)F)o4)cn3)c3cccc(F)c3)CC2)C1 [Compound 3389, N-((5-(5-(difluoromethyl)-1,3,4-oxadiazol-2-yl)pyridin-2-yl)methyl)-4-fluoro-N-(3-fluorophenyl)-1-(1-methylazetidine-3-yl)piperidine-4-carboxamide] | 28500 nM | 885 fold | 32.2 nM
14 | CCCN1CC(N2CCC(F)(C(=O)N(Cc3ccc(-c4nnc(C(F)F)o4)cn3)c3cccc(F)c3)CC2)C1 [Compound 3390, N-((5-(5-(difluoromethyl)-1,3,4-oxadiazol-2-yl)pyridin-2-yl)methyl)-4-fluoro-N-(3-fluorophenyl)-1-(1-propylazetidine-3-yl)piperidin-4-carboxamide] | 24200 nM | 1,015 fold | 23.8 nM
15 | CCCCN1CC(N2CCC(F)(C(=O)N(Cc3ccc(-c4nnc(C(F)F)o4)cn3)c3cccc(F)c3)CC2)C1 [Compound 3391, 1-(1-butylazetidine-3-yl)-N-((5-(5-(difluoromethyl)-1,3,4-oxadiazol-2-yl)pyridin-2-yl)methyl)-4-fluoro-N-(3-fluorophenyl)piperidine-4-carboxamide] | 28500 nM | 1,361 fold | 20.9 nM
16 | CC(C)CN1CC(N2CCC(F)(C(=O)N(Cc3ccc(-c4nnc(C(F)F)o4)cn3)c3cccc(F)c3)CC2)C1 [Compound 3392, N-((5-(5-(difluoromethyl)-1,3,4-oxadiazol-2-yl)pyridin-2-yl)methyl)-4-fluoro-N-(3-fluorophenyl)-1-(1-isobutylazetidine-3-yl)piperidine-4-carboxamide] | 44600 nM | 2,348 fold | 19 nM
17 | CC(C)N1CC(N2CCC(F)(C(=O)N(Cc3ccc(-c4nnc(C(F)F)o4)cn3)c3cccc(F)c3)CC2)C1 [Compound 3393, N-((5-(5-(difluoromethyl)-1,3,4-oxadiazol-2-yl)pyridin-2-yl)methyl)-4-fluoro-N-(3-fluorophenyl)-1-(1-isopropylazetidine-3-yl)piperidin-4-carboxamide] | > 50000 nM | 2,717 fold | 18.4 nM
18 | O=C(N(Cc1ccc(-c2nnc(C(F)F)o2)cn1)c1cccc(F)c1)C1(F)CN(C2CN(C3CCC3)C2)C1 [Compound 3394, 1′-cyclobutyl-N-((5-(5-(difluoromethyl)-1,3,4-oxadiazol-2-yl)pyridin-2-yl)methyl)-3-fluoro-N-(3-fluorophenyl)-[1,3′-biazetidine]-3-carboxamide] | > 50000 nM | 1,886 fold | 26.5 nM
19 | O=C(N(Cc1ccc(-c2nnc(C(F)F)o2)cn1)c1cccc(F)c1)C1(F)CN(C2CN(C3COC3)C2)C1 [Compound 3395, N-((5-(5-(difluoromethyl)-1,3,4-oxadiazol-2-yl)pyridin-2-yl)methyl)-3-fluoro-N-(3-fluorophenyl)-1′-(oxetan-3-yl)-[1,3′-biazetidine]-3-carboxamide] | > 50000 nM | 1,388 fold | 36 nM
20 | O=C(N(Cc1ccc(-c2nnc(C(F)F)o2)cn1)c1cccc(F)c1)C1(F)CN(C2CN(C3CCCC3)C2)C1 [Compound 3396, 1′-cyclopentyl-N-((5-(5-(difluoromethyl)-1,3,4-oxadiazol-2-yl)pyridin-2-yl)methyl)-3-fluoro-N-(3-fluorophenyl)-[1,3′-biazetidine]-3-carboxamide] | 31600 nM | 1,618 fold | 19.5 nM
